Reference: patent publication US7022317B2, “Heterocyclic derivatives of 2-oxothiazolidine-4-carboxylic acid, and use as active photoprotective agents” (L'Oreal, priority 2003, dated 2006)

Tested on: keratinocytes
Test: Active photoprotection against UVA oxidative stress induced on keratinocytes (DCFH-DA fluorescent probe)
Format: cell-based
Conditions: for % of fluorescence relative to the control cells exposed to UVA, TEST 1 / % of fluorescence relative to the control cells exposed to UVA, TEST 2: 24 hours preincubation, DCF fluorescence after UVA; for % of fluorescence relative to the control cells exposed to UVA, Mean: mean of TEST 1 and TEST 2
Experimental: The photoprotection evaluation technique is performed according to a well-known method (J. of Photochemistry and Photobiology B: Biology 57 (2000) 102–112 TOBI et al: Glutathione modulates the level of free radicals produced in UVA irradiated cells). This technique uses a fluorescent probe, a marker of intracellular global oxidative stress, 2′,7′-dichlorofluoresceine diacetate (DCFH-DA).
The use of DCFH-DA as an oxidative stress marker is based on its physicochemical properties. It is a nonionic apolar molecular capable of diffusing across cell membranes. Once inside the cell, DCFH-DA is hydrolysed by intracellular esterases to a non-fluorescent compound: DCFH or […]. In the presence of activated oxygen species, DCFH is rapidly oxidized to a highly fluorescent compound: DCF or 2,7-dichlorofluoresceine.
At confluence, the keratinocytes are incubated in the presence of a compound of formula (I) for 24 hours at 37° C., 5% CO2, in the culture medium, according to a dose effect (3 concentrations).
The keratinocytes, pretreated with a compound of formula (I), are rinsed and then incubated in the presence of DCFH-DA in the dark.
After this incubation, the DCFH-DA solution is removed and the cells are then exposed to UVA.
Comment: a non-exposed control plate is stored in the dark, at room temperature.
The fluorescence of the DCF is evaluated immediately after the exposure to UVA, via spectrofluorimetry (excitation: 480 nm; emission: 530 nm).
The results are expressed as % of fluorescence relative to the control cells exposed to UVA: […]

O=C1NCC(=O)N2C(=O)SCC12 (stereo not shown) [Compound 2, Tetrahydrothiazolo[3,4-a]pyrazine-3,5,8-trione]
% of fluorescence relative to the control cells exposed to UVA, TEST 1 (compound at 0.05 mM): 98%
% of fluorescence relative to the control cells exposed to UVA, TEST 2 (compound at 0.05 mM): 86%
% of fluorescence relative to the control cells exposed to UVA, Mean (compound at 0.05 mM): 92%
% of fluorescence relative to the control cells exposed to UVA, TEST 1 (compound at 0.5 mM): 79%
% of fluorescence relative to the control cells exposed to UVA, TEST 2 (compound at 0.5 mM): 74%
% of fluorescence relative to the control cells exposed to UVA, Mean (compound at 0.5 mM): 76.5%
% of fluorescence relative to the control cells exposed to UVA, TEST 1 (compound at 5 mM): 69%
% of fluorescence relative to the control cells exposed to UVA, TEST 2 (compound at 5 mM): 58%
reduction of fluorescence (optimum efficacy) (compound at 5 mM, UVA oxidative stress): about 36%
% of fluorescence relative to the control cells exposed to UVA, Mean (compound at 5 mM): 63.5%
